Experimental data as given in patent US6716849B1, “Substituted phenylcyclohexane carboxylic acid amides that have an adenosine uptake inhibiting effect” (Bayer Aktiengesellschaft, priority 2001, dated 2004).
pKi: −log10 of the molar value. Converted amounts (≈) assume the structure as drawn.

Key:
[1] = Determination of the solubility (precipitation method, physiological saline, HPLC); format: physicochemical; conditions: saline or isotonic, kinetic from dmso stock, 25° C., 24 hours equilibration
Method: 1. Determination of the Solubility
To determine the solubility, a precipitation method was used:
10 mg of the test substance are completely dissolved in 50 μl of DMSO (stock solution). 20 μl of this solution are added to 2000 μl of physiological saline. This solution, in turn, is shaken at 25° C. in a Thermomixer Comfort (from Eppendorf) at 1400 rpm for 24 hours for equilibration.
The precipitated fractions of the test substance are centrifuged off using a Biofuge 15 from Heraeus at 14,000 rpm for 5 min. 1300 μl of the supernatant are once more centrifuged using a Microfuge from Beckmann at 45,000 rpm=125,000 g.
10 μl of this centrifigation supernatant are then diluted with 1000 μl of DMSO, and this solution is measured by HPLC (Hewlett Packard 1090, method, gradient from 100% PBS buffer pH=4 to 10% buffer/90% acetonitrile over a period of 15 min, column: RPI8; PBS buffer pH=4 is a physiological saline solution adjusted to pH=4 using phosphate buffer).
Using a calibration curve, the measured peak area of the HPLC measurement is converted into substance concentration. For the calibration curve, 20 μl of the stock solution are diluted successively with DMSO such that 5 concentrations of 2.5 mg/l to 2000 mg/l result. These solutions are likewise measured by HPLC (see method above), and the peak areas are plotted as a function of the concentrations.

[2] = target: T1, adenosine transport protein from calf cortex (Bos taurus, UniProt A0ACM8Q8F7); experiment: Binding to an adenosine transport protein from calf cortex (displacement of radio-labelled NBTI); conditions: membrane preparation of cerebral calf cortex, read-out: Ki, inhibition of NBTI-binding
T1 construct: a membrane preparation of cerebral calf cortex is used, which expresses the relevant adenosine transporter; from tissue; host or cells: cerebral calf cortex, membrane preparation
T1 sequence (A0ACM8Q8F7 1-456): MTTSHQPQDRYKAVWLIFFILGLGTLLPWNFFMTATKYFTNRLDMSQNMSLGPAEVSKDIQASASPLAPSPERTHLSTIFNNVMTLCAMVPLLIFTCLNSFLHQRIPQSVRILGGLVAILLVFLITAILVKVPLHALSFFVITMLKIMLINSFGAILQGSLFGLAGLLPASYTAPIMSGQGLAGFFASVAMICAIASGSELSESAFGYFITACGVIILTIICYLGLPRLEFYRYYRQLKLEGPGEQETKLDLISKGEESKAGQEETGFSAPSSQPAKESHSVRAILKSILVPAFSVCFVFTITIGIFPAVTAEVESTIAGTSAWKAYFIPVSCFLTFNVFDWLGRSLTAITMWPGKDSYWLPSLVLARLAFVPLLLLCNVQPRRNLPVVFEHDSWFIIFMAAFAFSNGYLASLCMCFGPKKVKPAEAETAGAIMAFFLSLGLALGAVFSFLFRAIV
Text: 2. Binding of the Compounds According to the Invention to an Adenosine Transport Protein From Calf Cortex
The ability of substances to influence the adenosine uptake system is investigated firstly by determining the binding affinity of selected substances to an adenosine transport protein of the CNS and secondly by determining the inhibiting effect of the substances on functional adenosine uptake.
For the binding test, a membrane preparation of cerebral calf cortex is used, which expresses the relevant adenosine transporter. The binding affinity (Ki value) is determined by measuring the displacement of a specific radio-labelled ligand [nitrobenzylthioinosine (NBTI)] from the binding site in question by test substances. The binding site is the binding site on the transport protein which is relevant for the actual transport process. Thus, binding of test substances in this experiment results in a quantifiable release of bound radioactive NBTI which makes determination of the Ki value possible. (J. Neurochemistry 1982,39, 184-191).

[3] = system: subdural haematoma (SDH); experiment: Subdural haematoma in rats (SDH), infarct volume; format: in vivo; conditions: rat SDH, 0.001 mg/(kg×h) i.v. infusion
Method: The neuroprotective activity of the compounds according to the invention was determined in the animal model of transient occlusion of the middle cerebral artery (tMCA-O) and the subdural haematoma (SDH). 5. Subdural Haematoma in Rats (SDH) This rodent model (rat) imitates pathophysiology and cerebral pathology of the blunt skull-brain trauma with subdural hemorrhage and development of a subdural haematoma in man. (Neurosurgery 190, 27,433-439). Under anaesthesia, the animals are unilaterally injected subdurally with their own blood. Under the haematoma, an infarct forms. The substance is administered according to different schedules and via different administration routes (i.v., i.p.). The size of the infarct is determined as described in the model of the transient focal ischaemia in rats (tMCA-O).

[4] = system: transient occlusion of the middle cerebral artery (tMCA-O); experiment: tMCA-O: transient occlusion of the middle cerebral artery, infarct volume; format: in vivo; conditions: rat tMCA-O, 0.001 mg/(kg×h) i.v. infusion, begun at start of reperfusion, evaluated after 2 days
Method: The neuroprotective activity of the compounds according to the invention was determined in the animal model of transient occlusion of the middle cerebral artery (tMCA-O) and the subdural haematoma (SDH). […] Under general anaesthesia (inhalation anaesthesia with isoflurane), the hairs in the lower anterior neck region are shaved off, in the dorsal position, the head is fixed, the skin is disinfected and the neck area is opened in the middle along the trachea. The right lateral neck muscles are severed bluntly and, together with the skin, pulled to the side (retractors) so that the common carotid artery is clearly visible. The common carotid artery is exposed towards the head up to the point where it branches into the internal carotid artery and the external carotid artery. Using surgical suture material, the common carotid artery (near the thorax) and the external carotid artery are tied off. Using a microclamp; the internal carotid artery is closed temporarily. […] After 2 days of post-operative survival, the volume of the cerebral infarct is determined with the aid of a computer-supported image analysis system using preproduced series of histological brain sections. The size of the infarct is evaluated differentially by cortex, striatum, hippocampus and other brain areas.

solubility at 24 h [1] [µg/mL]	pKi [2]	Compound	reduction of the infarct volume in comparison to control animals [3] [%]	reduction of the infarct volume in comparison to control animals [4] [%]
176 (≈ 311 µM)	8.70	NC(=O)[C@@H](NC(=O)[C@@H]1CCCC[C@H]1c1ccc(Cn2c(CN3CCOCC3)nc3cccnc32)cc1)c1ccccc1 [Example 3]	30	81
–	–	Cl.NC(=O)[C@@H](NC(=O)[C@@H]1CCCC[C@H]1c1ccc(Cn2c(CN3CCOCC3)nc3ncccc32)cc1)c1ccccc1 [Example 4, (S)-N-{{(1R,2R)-{4-{2-[2-(Morpholin-4-yl-methyl)-1H-pyrido[2,3-d]imidazol-1-yl]methyl}-phenyl}-cyclohex-1-yl}carbonyl}-phenylglycinamide hydrochloride]	45	–
16 (≈ 28.3 µM)	8.70	CN1CCN(c2nc3ccccc3n2Cc2ccc([C@@H]3CCCC[C@H]3C(=O)N[C@H](C(N)=O)c3ccccc3)cc2)CC1 [Example 5, (S)-N-{{(1R,2R)-2-{4-{[2-(4-Methyl-piperazin-1-yl)benzimidazol-1-yl]methyl}-phenyl}-cyclohex-1-yl}carbonyl}-phenylglycinamide]	–	91
